Measurements: PMC6265332, “A scalable peptide-GPCR language for engineering multicellular communication” (Nature Communications, 2018)
Where a SMILES comes first, the peptide text is derived from it.

Tested on: fungal mating GPCRs (Ste2-like, xy.Ste2) expressed in S. cerevisiae strain JTy014
Format: cell-based, Ascomycete species of the code; expressed in S. cerevisiae
Conditions: GPCR of the same code; for Bttm (basal activation) / Span / Top (maximal activation): fit parameter of the dose-response curve, A600-normalised RFP fluorescence, 8 h, triplicate; for Fold Change: fold activation, peptide-treated maximum over water-treated A600-normalised fluorescence; for Hill Slope: four-parameter fit of the dose-response curve (dynamic range)

| Molecule | Bttm (basal activation) | Span | Top (maximal activation) | Fold Change | Hill Slope |
| --- | --- | --- | --- | --- | --- |
| CC[C@H](C)[C@H](NC(=O)[C@H](Cc1c[nH]c2ccccc12)NC(=O)CN)C(=O)NCC(=O)N[C@@H](CCCNC(=N)N)C(=O)N[C@@H](CS)C(=O)NCC(=O)N[C@H](C(=O)N1CCC[C@H]1C(=O)NCC(=O)N[C@@H](CO)C(=O)N[C@@H](CO)C(=O)N[C@@H](CS)C(=O)O)C(C)C [Bm] (H-GWIGRCGVPGSSC-OH; N-terminus and C-terminus assumed) | 30.3 | 128.4 | 158.8 | 5.2 | 1.2 |
| WCYRIGEPCW [Hj, mature mating peptide ligand 1, Hypocrea jecorina] | 53.0 | 376.5 | 429.5 | 8.1 | 0.6 |
| QWCR---IHGQSCW [Nc, mature mating peptide ligand 1, Neurospora crassa] | 27.6 | 259.2 | 286.7 | 10.4 | 0.6 |
| WCTRPGQGC [Pb, mature mating peptide ligand 1, Paracoccidioides brasiliensis] | 20.2 | 196.9 | 217.1 | 10.8 | 0.5 |
| WCGRPGQPC [Bc, mature mating peptide ligand 1, Botrytis cinerea] | 28.6 | 323.3 | 351.9 | 12.3 | 0.7 |
| FCWRPGQPCG [Pd, mature mating peptide ligand 1, Pseudogymnoascus destructans] | 28.8 | 161.2 | 190.0 | 6.6 | 0.7 |
| KPHWTTYGYYEPQ [Cp, mature mating peptide ligand 1, Candida parapsilosis] | 36.2 | 217.8 | 254.0 | 7.0 | 0.8 |
| WCMRPGQPCW [Bb, mature mating peptide ligand 1, Beauvaria bassiana] | 25.2 | 218.9 | 244.1 | 9.7 | 1.0 |
| WCGHIGQGC [Pr, mature mating peptide ligand 1, Penicillium chrysogenum] | 27.9 | 179.4 | 207.3 | 7.4 | 0.6 |
